Data taken from ChEMBL document CHEMBL1156241, “Synthesis of a biologically active isomer of kotalanol, a naturally occurring glucosidase inhibitor” (Bioorg Med Chem, 2010).
pKi: −log10 of the molar value.

Target: Maltase-glucoamylase (Homo sapiens, UniProt O43451)
Experiment: Inhibition of recombinant human maltase glucoamylase N-terminal catalytic domain

Chain of Maltase-glucoamylase (O43451 whole entry, the tested form may be a part): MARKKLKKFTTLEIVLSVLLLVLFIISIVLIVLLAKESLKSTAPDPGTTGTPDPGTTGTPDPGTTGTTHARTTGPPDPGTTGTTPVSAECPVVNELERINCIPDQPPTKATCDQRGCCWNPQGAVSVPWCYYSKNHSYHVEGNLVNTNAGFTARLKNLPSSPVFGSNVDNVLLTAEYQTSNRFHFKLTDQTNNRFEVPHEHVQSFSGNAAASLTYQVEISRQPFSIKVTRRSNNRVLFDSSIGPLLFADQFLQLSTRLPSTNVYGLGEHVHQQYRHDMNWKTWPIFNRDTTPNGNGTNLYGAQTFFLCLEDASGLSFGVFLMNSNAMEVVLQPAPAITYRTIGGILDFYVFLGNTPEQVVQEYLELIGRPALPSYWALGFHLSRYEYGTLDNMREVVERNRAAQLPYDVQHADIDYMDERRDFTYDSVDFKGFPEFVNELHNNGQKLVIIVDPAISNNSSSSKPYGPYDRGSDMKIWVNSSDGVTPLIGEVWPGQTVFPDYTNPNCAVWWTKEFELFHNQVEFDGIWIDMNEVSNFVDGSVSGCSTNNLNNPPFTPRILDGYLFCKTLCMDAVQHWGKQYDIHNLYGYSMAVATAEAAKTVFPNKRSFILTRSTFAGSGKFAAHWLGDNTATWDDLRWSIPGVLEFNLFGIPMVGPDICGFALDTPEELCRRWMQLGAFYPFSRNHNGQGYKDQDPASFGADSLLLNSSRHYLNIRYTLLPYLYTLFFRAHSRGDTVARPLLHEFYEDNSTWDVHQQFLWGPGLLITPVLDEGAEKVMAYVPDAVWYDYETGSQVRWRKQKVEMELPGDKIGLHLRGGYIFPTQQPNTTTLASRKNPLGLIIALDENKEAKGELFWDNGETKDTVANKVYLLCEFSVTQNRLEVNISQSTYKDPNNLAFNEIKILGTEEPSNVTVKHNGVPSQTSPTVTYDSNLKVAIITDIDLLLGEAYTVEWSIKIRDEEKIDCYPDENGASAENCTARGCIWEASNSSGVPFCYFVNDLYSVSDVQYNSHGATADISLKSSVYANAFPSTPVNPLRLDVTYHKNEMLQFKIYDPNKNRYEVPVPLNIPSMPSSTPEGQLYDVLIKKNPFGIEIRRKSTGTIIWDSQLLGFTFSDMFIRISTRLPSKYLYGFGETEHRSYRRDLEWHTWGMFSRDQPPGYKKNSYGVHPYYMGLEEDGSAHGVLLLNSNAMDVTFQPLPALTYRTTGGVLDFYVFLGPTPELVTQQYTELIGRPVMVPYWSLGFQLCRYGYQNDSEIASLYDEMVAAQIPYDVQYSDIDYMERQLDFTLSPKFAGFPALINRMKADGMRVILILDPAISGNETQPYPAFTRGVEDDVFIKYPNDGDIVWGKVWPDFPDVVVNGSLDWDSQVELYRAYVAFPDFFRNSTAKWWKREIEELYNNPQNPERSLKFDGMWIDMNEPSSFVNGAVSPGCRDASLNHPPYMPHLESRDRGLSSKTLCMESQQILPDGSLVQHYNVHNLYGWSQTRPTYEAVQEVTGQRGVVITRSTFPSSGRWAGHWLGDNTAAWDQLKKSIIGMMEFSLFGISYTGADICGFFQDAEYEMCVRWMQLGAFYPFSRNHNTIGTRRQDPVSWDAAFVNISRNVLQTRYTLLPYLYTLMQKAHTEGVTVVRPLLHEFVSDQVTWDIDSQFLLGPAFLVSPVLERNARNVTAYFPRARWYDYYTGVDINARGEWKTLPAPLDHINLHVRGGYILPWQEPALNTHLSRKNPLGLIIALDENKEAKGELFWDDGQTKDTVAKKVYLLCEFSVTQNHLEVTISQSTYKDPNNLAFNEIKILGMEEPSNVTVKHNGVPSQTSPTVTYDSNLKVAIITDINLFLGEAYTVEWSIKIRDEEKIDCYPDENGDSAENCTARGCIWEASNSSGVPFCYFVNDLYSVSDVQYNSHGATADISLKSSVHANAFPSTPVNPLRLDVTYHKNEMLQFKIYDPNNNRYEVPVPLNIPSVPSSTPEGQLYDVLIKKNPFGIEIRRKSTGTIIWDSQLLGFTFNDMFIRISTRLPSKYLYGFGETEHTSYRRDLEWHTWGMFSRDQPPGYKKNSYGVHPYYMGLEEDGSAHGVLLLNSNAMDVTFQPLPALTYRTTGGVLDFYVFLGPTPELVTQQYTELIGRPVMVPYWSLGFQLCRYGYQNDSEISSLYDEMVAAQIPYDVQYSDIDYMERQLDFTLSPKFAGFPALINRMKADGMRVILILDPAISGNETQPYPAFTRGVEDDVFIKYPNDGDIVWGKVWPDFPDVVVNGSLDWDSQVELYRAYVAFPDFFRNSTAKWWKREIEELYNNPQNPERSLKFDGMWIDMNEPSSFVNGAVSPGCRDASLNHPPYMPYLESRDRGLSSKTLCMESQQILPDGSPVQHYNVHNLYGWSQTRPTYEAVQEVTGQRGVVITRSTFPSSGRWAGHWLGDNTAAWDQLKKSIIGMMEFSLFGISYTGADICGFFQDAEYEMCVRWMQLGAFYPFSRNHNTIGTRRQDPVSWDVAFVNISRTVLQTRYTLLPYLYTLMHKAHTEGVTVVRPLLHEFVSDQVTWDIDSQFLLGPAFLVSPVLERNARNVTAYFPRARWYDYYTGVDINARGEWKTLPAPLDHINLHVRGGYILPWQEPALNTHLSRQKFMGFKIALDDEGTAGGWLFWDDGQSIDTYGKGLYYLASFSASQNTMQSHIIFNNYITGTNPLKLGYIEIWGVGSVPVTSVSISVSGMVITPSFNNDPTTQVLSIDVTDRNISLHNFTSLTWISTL

O=S(=O)([O-])O[C@@H]([C@H](O)[C@@H](O)[C@@H](O)CO)[C@H](O)C[S+]1C[C@@H](O)[C@H](O)[C@H]1CO (some centres undefined)
pKi: 7.00

O=S(=O)([O-])O[C@@H]([C@H](O)[C@H](O)[C@H](O)CO)[C@H](O)C[S+]1C[C@@H](O)[C@H](O)[C@H]1CO (some centres undefined)
pKi: 6.70

O=S(=O)([O-])O[C@@H]([C@H](O)[C@@H](O)[C@H](O)CO)[C@H](O)C[S+]1C[C@@H](O)[C@H](O)[C@H]1CO (some centres undefined)
pKi: 6.89

O=S(=O)([O-])O[C@@H]([C@H](O)[C@H](O)[C@@H](O)CO)[C@H](O)C[S+]1C[C@@H](O)[C@H](O)[C@H]1CO (some centres undefined) [KOTALANOL]
pKi: 6.72
